Experimental data published in ChEMBL document CHEMBL3751673, “Illuminating the binding interactions of galactonoamidines during the inhibition of β-galactosidase (E. coli)” (Bioorg Med Chem, 2016).

Each molecule was assayed against Beta-galactosidase (Escherichia coli, UniProt Q8VNN2) (assay: Competitive inhibition of Escherichia coli beta-galactosidase assessed as p-nitrophenyl-beta-D-galactopyranoside substrate hydrolysis by UV/Vis spectroscopy).
Beta-galactosidase, sequence (Q8VNN2 whole entry): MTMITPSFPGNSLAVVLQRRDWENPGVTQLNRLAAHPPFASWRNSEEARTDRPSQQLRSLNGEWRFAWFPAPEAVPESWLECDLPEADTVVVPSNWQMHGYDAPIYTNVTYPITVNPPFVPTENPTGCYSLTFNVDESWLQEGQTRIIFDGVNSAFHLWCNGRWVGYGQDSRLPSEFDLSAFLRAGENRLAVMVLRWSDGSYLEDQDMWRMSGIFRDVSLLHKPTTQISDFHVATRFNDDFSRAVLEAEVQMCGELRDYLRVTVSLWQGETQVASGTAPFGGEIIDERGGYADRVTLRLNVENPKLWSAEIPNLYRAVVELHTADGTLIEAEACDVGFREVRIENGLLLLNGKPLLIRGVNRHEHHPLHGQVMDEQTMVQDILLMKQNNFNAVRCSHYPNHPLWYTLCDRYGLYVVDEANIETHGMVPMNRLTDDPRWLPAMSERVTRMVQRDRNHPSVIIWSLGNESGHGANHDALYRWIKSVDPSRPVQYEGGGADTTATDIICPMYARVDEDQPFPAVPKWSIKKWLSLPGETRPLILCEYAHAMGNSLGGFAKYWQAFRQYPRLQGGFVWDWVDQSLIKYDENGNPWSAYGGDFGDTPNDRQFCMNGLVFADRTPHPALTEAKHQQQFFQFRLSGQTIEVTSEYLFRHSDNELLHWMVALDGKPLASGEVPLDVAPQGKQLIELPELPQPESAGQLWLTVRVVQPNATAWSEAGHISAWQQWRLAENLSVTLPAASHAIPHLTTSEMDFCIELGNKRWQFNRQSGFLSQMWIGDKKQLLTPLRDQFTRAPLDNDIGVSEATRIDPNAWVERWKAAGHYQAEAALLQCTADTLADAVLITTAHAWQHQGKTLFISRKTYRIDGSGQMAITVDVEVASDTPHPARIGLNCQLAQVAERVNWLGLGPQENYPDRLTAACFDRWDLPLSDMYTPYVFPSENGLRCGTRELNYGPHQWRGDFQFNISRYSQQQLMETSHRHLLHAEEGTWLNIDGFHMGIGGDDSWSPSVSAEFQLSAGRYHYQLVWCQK
In the case of `Cc1ccc(C/N=C2\N[C@H](CO)[C@H](O)[C@H](O)[C@H]2O)cc1`, the Ki is reported as 0.06 nM. `CO[C@H]1C(NCc2ccc(C)cc2)=N[C@H](CO)[C@H](O)[C@@H]1O` gave a Ki of 42 nM. With `Cc1ccc(CNC2=N[C@H](CO)[C@H](O)[C@H](O)C2)cc1` the Ki was 1.3 nM. For `CO[C@@H]1[C@H](O)[C@@H](O)C(NCc2ccc(C)cc2)=N[C@@H]1CO`, the Ki was 32 nM.
